In data set [1] the target is T1, creatine transporter (Homo sapiens, UniProt P48029).
T1 construct: endogenous in cells; host or cells: normal human monocytes and macrophages
T1 sequence (P48029 1-635): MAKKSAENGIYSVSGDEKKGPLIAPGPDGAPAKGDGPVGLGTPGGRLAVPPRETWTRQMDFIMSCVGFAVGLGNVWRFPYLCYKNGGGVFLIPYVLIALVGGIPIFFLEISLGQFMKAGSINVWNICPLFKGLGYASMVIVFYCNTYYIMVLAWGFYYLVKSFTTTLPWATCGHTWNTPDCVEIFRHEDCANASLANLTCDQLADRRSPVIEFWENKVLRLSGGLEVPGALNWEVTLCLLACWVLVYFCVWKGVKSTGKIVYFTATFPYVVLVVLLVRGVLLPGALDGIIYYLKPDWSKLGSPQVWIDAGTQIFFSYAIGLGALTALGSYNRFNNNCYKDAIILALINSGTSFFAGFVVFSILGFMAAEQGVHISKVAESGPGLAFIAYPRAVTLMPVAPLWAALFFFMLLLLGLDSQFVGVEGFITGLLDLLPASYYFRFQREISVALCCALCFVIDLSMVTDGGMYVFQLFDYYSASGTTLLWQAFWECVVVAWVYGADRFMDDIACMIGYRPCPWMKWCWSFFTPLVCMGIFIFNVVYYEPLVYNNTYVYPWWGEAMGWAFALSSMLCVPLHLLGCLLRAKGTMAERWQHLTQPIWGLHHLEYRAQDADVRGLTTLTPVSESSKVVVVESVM
As to conditions: normal human monocytes and macrophages; read-out: Km of creatine transport; cited from earlier work.

For data set [2], the system named is person with X-linked creatine transporter deficiency (CTD). Briefly: Creatine treatment of a child with X-linked creatine transporter deficiency. Format: in vivo, human. The following applies: increasing doses to 750 mg/kg/day, discontinued after 6 months. The source says: This example illustrates that administration of creatine to a person with X-linked creatine transporter deficiency (CTD) fails to increase brain creatine or to ameliorate clinical symptoms associated with decreased brain levels of creatine. […] Several female family members were identified as heterozygote carriers of this disorder, and appear to have decreased Cr. The child had severe expressive dysphasia with other cognitive functions less affected. […] In the absence of demonstrable benefit, the creatine treatment was discontinued after 6 months.

Data set [3] concerns CRT KO mice. Briefly: Novel Object Recognition test. It is filed as in vivo. As to conditions: before and after 9-week supplementation, 0.286 mg/g body weight/day. From the text:
Regarding FIG. 3, CRT brain-specific knockout male mice (CRT′ or CRT KO mice) and their control littermates (CrTf1″5″) were generated by the methods known in the art (e.g., by using the Cre-lox system and homologous recombination as described in Sauer B., Methods, 1998, 14, 381-392; the strategy for targeting the gene deletion to the brain region was based on the data described in Casanova E. et al., Genesis 2001, 31, 37-42). […] A total 29 CRT KO male mice (CRT^/y) and 28 control male mice (CRT^flox/y) at 12 months of age were used in the cyclocreatine supplementation study. The mice were randomly assigned to one of three groups that were started on one of three treatments for 9 weeks: 1) cyclocreatine (C-Cr, CRT KO=7, control=5), 2) creatine (Cr, CRT KO=5, control=5), and 3) maltodextrine as placebo (P, CRT KO=5, control=5). Each treatment drug was supplied in the drinking water and the concentration was adjusted to 0.286 mg/g body weight/day, corresponding to the standard dose of creatine for human subjects (20 g/70 kg body weight/day). Short-term memory of CRT KO mice and their control littermates before and after 9-week cyclocreatine supplementation was measured using the Novel Object Recognition test that is routinely used in the art for evaluation of cognition in rodent models of the disorders of the central nervous system. […]

Data set [4] deals with CRT KO mice. Briefly: Levels of cyclocreatine in the brain after supplementation. It is filed as in vivo. As to conditions: 9 weeks supplementation in drinking water, 0.286 mg/g body weight/day. The source says: Regarding FIG. 3, CRT brain-specific knockout male mice (CRT′ or CRT KO mice) and their control littermates (CrTf1″5″) were generated by the methods known in the art (e.g., by using the Cre-lox system and homologous recombination as described in Sauer B., Methods, 1998, 14, 381-392; the strategy for targeting the gene deletion to the brain region was based on the data described in Casanova E. et al., Genesis 2001, 31, 37-42). […] A total 29 CRT KO male mice (CRT^/y) and 28 control male mice (CRT^flox/y) at 12 months of age were used in the cyclocreatine supplementation study. The mice were randomly assigned to one of three groups that were started on one of three treatments for 9 weeks: 1) cyclocreatine (C-Cr, CRT KO=7, control=5), 2) creatine (Cr, CRT KO=5, control=5), and 3) maltodextrine as placebo (P, CRT KO=5, control=5). […] Levels of cyclocreatine and creatine in the organs of CRT KO mice and their control littermates before cyclocreatine supplementation were measured by the methods known in the art (e.g., creatine content was measured as described in Conn R., Clin. Chem., 1960, 6, 537-548; and cyclocreatine content was measured as described in Griffith G. R., J Biol. Chem. 1976, 251(7), 2049-2054). […] Data is expressed as mean±SE. §P≦0.0001, §§P<0.00001.

Data set [5] relates to CRT KO mice. Briefly: Morris Water Maze test. It is filed as in vivo. The source says: Regarding FIG. 3, CRT brain-specific knockout male mice (CRT′ or CRT KO mice) and their control littermates (CrTf1″5″) were generated by the methods known in the art (e.g., by using the Cre-lox system and homologous recombination as described in Sauer B., Methods, 1998, 14, 381-392; the strategy for targeting the gene deletion to the brain region was based on the data described in Casanova E. et al., Genesis 2001, 31, 37-42). […] A total 29 CRT KO male mice (CRT^/y) and 28 control male mice (CRT^flox/y) at 12 months of age were used in the cyclocreatine supplementation study. The mice were randomly assigned to one of three groups that were started on one of three treatments for 9 weeks: 1) cyclocreatine (C-Cr, CRT KO=7, control=5), 2) creatine (Cr, CRT KO=5, control=5), and 3) maltodextrine as placebo (P, CRT KO=5, control=5). […] Spatial learning and memory in the CRT KO mice and their control littermates before and after 9-week cyclocreatine supplementation was measured by the Morris Water Maze test, a procedure routinely used in behavioral neuroscience to study spatial learning and memory. […] The mouse swims around the pool in search of an exit while various parameters are recorded, e.g., the time spent in each quadrant of the pool and the time taken to reach the platform (latency). […] Data is expressed as mean±SE, *P≦0.05.

Data set [6] relates to CRT KO mice. Briefly: Phosphorylated metabolites in the brain by in vivo magnetic resonance spectroscopy. The following applies: after 9 weeks supplementation, in vivo MRS. The source says:
Regarding FIG. 3, CRT brain-specific knockout male mice (CRT′ or CRT KO mice) and their control littermates (CrTf1″5″) were generated by the methods known in the art (e.g., by using the Cre-lox system and homologous recombination as described in Sauer B., Methods, 1998, 14, 381-392; the strategy for targeting the gene deletion to the brain region was based on the data described in Casanova E. et al., Genesis 2001, 31, 37-42). […] A total 29 CRT KO male mice (CRT^/y) and 28 control male mice (CRT^flox/y) at 12 months of age were used in the cyclocreatine supplementation study. The mice were randomly assigned to one of three groups that were started on one of three treatments for 9 weeks: 1) cyclocreatine (C-Cr, CRT KO=7, control=5), 2) creatine (Cr, CRT KO=5, control=5), and 3) maltodextrine as placebo (P, CRT KO=5, control=5). Each treatment drug was supplied in the drinking water and the concentration was adjusted to 0.286 mg/g body weight/day, corresponding to the standard dose of creatine for human subjects (20 g/70 kg body weight/day). The levels of phosphorylated metabolites in the brains of the CRT KO and their control littermates were measured by in vivo magnetic resonance spectroscopy using the procedures well known in the art. […] Data is expressed as mean±SE,*P≦0.05, **P≦0.01.

The Km is the substrate concentration at which the rate is half of its maximum.

For `CN(CC(=O)O)C(=N)N` [creatine], the Km in data set [1] was about 30 µM. Besides, the “clinical or spectroscopic (1H MRS) improvement” value in data set [2] is on record as “without clinical or spectroscopic (^1H MRS) improvement”. Moreover, the “short-term memory (discrimination index)” value in data set [3] is on record as “no significant changes”.
As to `NC1=NCCN1CC(=O)O` [cyclocreatine], the “levels of cyclocreatine in the brains” value in data set [4] is “increased”. Also, the “spatial learning and memory” value in data set [5] (before and after 9-week supplementation) is “improves spatial learning and memory”. The “latency in finding hidden platforms” value in data set [5] (versus placebo treated CRT KO mice) is on record as “shorter latency”. For the same compound, in data set [3], the “short-term memory (discrimination index)” value is “normalizes the short-term memory”. Further, the “levels of cyclocreatine and/or creatine phosphate in the brain (peak height ratio)” value in data set [6] is reported as “increases the levels of cyclocreatine and/or creatine phosphate”.

The values are drawn from patent publication US9233099B2, “Methods of treating cognitive dysfunction by modulating brain energy metabolism” (University of Cincinnati, priority 2012, dated 2016).
